The source made the active and inactive calls. The calls are words filed in the database; no cut-off is given here.

Experiment [1] concerns the target T1, Choline O-acetyltransferase (Rattus norvegicus) (UniProt P32738).
T1 sequence (whole entry): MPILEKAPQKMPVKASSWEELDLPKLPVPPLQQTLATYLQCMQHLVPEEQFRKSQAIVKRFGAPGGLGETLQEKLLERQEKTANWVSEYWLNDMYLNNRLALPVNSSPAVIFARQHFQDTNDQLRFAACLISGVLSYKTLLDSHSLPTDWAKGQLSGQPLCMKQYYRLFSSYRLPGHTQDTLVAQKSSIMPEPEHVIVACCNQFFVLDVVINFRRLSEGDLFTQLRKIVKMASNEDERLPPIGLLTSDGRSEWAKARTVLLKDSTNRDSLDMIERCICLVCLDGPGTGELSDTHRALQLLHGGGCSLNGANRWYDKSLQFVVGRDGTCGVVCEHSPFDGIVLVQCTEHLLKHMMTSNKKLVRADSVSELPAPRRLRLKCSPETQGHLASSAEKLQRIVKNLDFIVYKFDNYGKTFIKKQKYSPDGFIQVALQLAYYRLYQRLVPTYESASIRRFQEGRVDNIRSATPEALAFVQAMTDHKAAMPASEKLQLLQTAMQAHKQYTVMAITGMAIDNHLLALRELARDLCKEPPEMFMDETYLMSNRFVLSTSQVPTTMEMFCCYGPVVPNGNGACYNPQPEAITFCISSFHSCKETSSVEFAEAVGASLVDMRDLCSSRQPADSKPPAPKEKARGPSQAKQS
The experiment is described as follows: Compound was tested in vitro for choline acetyltransferase (ChAT) activity (maximal ChAT stimulation) in embryonic rat spinal cord cultures at a concentration of 10 uM; Inactive. The class given is tissue-based.

The target of experiment [2] is T1, Choline O-acetyltransferase (Rattus norvegicus). Nature of the experiment: Compound was tested in vitro for choline acetyltransferase (ChAT) activity (maximal ChAT stimulation) in embryonic rat spinal cord cultures at a concentration of 10 uM. Format: tissue-based.
Experiment [3] shares this target. Nature of the experiment: Compound was tested in vitro for choline acetyltransferase (ChAT) activity (maximal ChAT stimulation) in embryonic rat spinal cord cultures at a concentration of 0.300 uM. Format: tissue-based.
The target is the same in experiment [4]. Nature of the experiment: Compound was tested in vitro for choline acetyltransferase (ChAT) activity (maximal ChAT stimulation) in embryonic rat spinal cord cultures at a concentration of 10 uM; inactive.
Experiment [5] has the same target. Nature of the experiment: Compound was tested in vitro for choline acetyltransferase (ChAT) activity (maximal ChAT stimulation) in embryonic rat spinal cord cultures at a concentration of 1 uM. Format: tissue-based.

In the case of `CN1Cc2c(-c3ccccc3)cc3c(c2C1=O)c1ccccc1n3C`, the Control result in experiment [1] is “inactive”.

Consider `O=C1NCc2c(-c3ccccc3)cc3[nH]c4ccccc4c3c21`, for which the Control in experiment [2] came to 167%.

On to `COC(=O)[C@]1(O)C[C@@H]2O[C@@]1(C)n1c3ccccc3c3c4c(c5c6ccccc6n2c5c31)C(=O)NC4`, for which the Control in experiment [3] came out at 186%.

For the molecule `O=C1NCc2c1c(-c1ccccc1)cc1[nH]c3ccccc3c21`, the Control result in experiment [4] was “inactive”.

Regarding `CC(C)(C)OC(=O)/C=C/c1ccc2[nH]c3cc(-c4ccccc4)c4c(c3c2c1)C(=O)NC4`, the Control result in experiment [4] was “inactive”.

On to `O=C1NCc2c(-c3ccccc3)cc3[nH]c4ccc(/C=C/c5ccccc5)cc4c3c21`, for which, in experiment [4], the Control entry was “inactive”.

In experiment [5], `O=C1NCc2c1c1c3ccccc3[nH]c1c1[nH]c3ccccc3c21` came in with a Control of 162%.

In experiment [5], `O=C1NCc2c(-c3ccccc3)cc3[nH]c4ccc(Br)cc4c3c21` had a Control of 146%.

`Cn1c2ccccc2c2c3c(c(-c4ccccc4)cc21)CNC3=O`: in experiment [2], the Control was 159%.
